This series can be described thus: oral bioavailability in dogs. It is filed as in vivo, beagle dogs. The following applies: dog, 5 mg/kg. As to the method:
Protocol for Oral Bioavailability
Dogs (beagle dogs, mixed sexes, weighing 7-14 kg) were fasted overnight prior to dosing, but were permitted water ad libitum. Each dog received a 100 µg/kg subcutaneous dose of histamine approximately 30 minutes prior to dosing. Each dog received a single dosage form corresponding to a 5 mg/kg dose of the drug. The dose was followed by approximately 10 milliliters of water. Blood samples were obtained from each animal prior to dosing and 0.25, 0.5, 1.0, 1.5, 2, 3, 4, 6, 8, 10, and 12 hours after drug administration. The plasma was separated from the red cells by centrifugation and frozen (-30 °C) until analysis. Concentrations of parent drug were determined by reverse phase HPLC with low wavelength UV detection following liquid-liquid extraction of the plasma samples. The parent drug area under the curve was calculated by the trapezoidal method over the time course of the study. The absolute bioavailability of each test composition as calculated by comparing the area under the curve after oral dosing to that obtained from a single intravenous dose. Each capsule or capsule composition was evaluated in a group containing at least six dogs; the values reported are averages for each group of dogs.

Read-outs that look alike come from different tables or passages of the source. Where only a bound is given, the exact number is not on record here.

As to `CC(C)c1nc(CN(C)C(=O)NC(C(=O)NC(Cc2ccccc2)CC(O)C(Cc2ccccc2)NC(=O)OCc2cncs2)C(C)C)cs1` (stereo not drawn) [bistosylate], the bioavailability (in vivo, administered as an unformulated solid in a capsule dosage form, 5 mg/kg oral dose in dogs, read-out: bioavailability) was less than 2%.
Consider `CC(C)c1nc(CN(C)C(=O)N[C@H](C(=O)N[C@@H](Cc2ccccc2)C[C@H](O)[C@H](Cc2ccccc2)NC(=O)OCc2cncs2)C(C)C)cs1` [compound of formula III], for which the bioavailability (both sexes, beagle, plasma, administered as an unformulated solid in a capsule dosage form, 5 mg/kg oral dose in dogs, read-out: bioavailability) was less than 2% and the bioavailability (both sexes, beagle, plasma, solution in pharmaceutically acceptable organic solvents with long chain fatty acid, as encapsulated dosage form (soft elastic capsules or hard gelatin capsules), printed 'as high as about 60% or more', read-out: oral bioavailability) was roughly 60%.

What is called bioavailability is dose-corrected exposure relative to a reference, in per cent.

Source of the values: patent EP1733725B2, “Pharmaceutical solution comprising ritonavir, a solvent (long chain fatty acid) and water” (ABBOTT LABORATORIES, priority 1999, dated 2000).
